Laboratory results taken from patent publication US9242962B2, “Method of treatment” (GlaxoSmithKline Intellectual Property (No. 2) Limited, priority 2011, dated 2016).

Tests used:
CD4+ T cells [1] = experiment: T cell receptor-induced CD4+ T cell proliferation (CFSE, flow cytometry); format: cell-based, human; settings: 10 μg/mL αCD3 + 2 μg/mL αCD28, 6 days; for IC50: Homo sapiens, CD4+ T, 144 h, division index by CFSE, n=4, ±sem, read-out: pIC50, T cell receptor-induced proliferation of CD4+ T cells (converted)
Description: (§1) 15 mls ficoll was added to 8×50 mL accuspin tubes per donor and centrifuged at 2000 RPM for 1 min. Whole blood samples (200 mL+1% heparin) were collected from human donors. Approximately 25 ml blood was added to each ficoll pre-filled 50 ml falcon tubes with filter and centrifuged at 1500 RPM for 20 min with the brake off to avoid disturbing cell separation. 45 ml with PBS was added to the PBMC fraction of each tube and centrifuged at 1500 RPM for 10 min with brake. Supernatant were discarded and cell pellets resuspended in 2 ml PBS. Cell suspensions for each donor were recombined into a single falcon tube, made up to 45 ml with PBS and centrifuged at 1500 RPM for 10 min. CD4+ T cells were isolated by negative depletion using a CD4 T cell Isolation Kit from Miltenyi Biotech according to manufacturers protocol.
96-well flat-bottom plates were coated with 10 μg/mL anti-CD3+2 μg/mL anti-CD28 at 4° C. overnight. The following day, plates were washed with PBS. For proliferation studies, cells were stained with CFSE (Invitrogen) according to manufacturer's protocol. […] Cells were then transferred to 96-well round-bottom plates, washed and then analysed by flow cytometry.
(§2) Anti-CD3 (HU CD3 NALE MAB UCHT1; Cat #555329) and anti-CD28 (HU CD28 NALE MAB CD28.2; Cat #: 555725), were obtained from BD Pharmingen and dissolved in Dulbecco's Phosphate Buffered Saline (with Ca2+/Mg2+; Gibco). Ficoll-paque (Cat #17-1440-03) was obtained from GE Healthcare. The CD4+ T cell isolation kit (Cat #130-091-155) was obtained from Miltenyi Biotec. Cells were cultured in RPMI 1640 containing 10% FCS+1% pen/strep+1% L-glutamine. The CellTrace CFSE cell proliferation kit (Cat #C34554) was obtained from Invitrogen. Compound A, Compound B and Compound C were all synthesised in house and dissolved in 100% DMSO.
Flowjo Software was used to calculate a division index using fluorescence intensity. Data are expressed as mean±standard error of the mean; n values are the numbers of human donors used. pIC50 values were generated using GraphPad Prism software and non-linear sigmoid dose curve-fit.

CD4+ T cells [2] = experiment: T cell receptor-induced cytokine production in CD4+ T cells (multiplex ELISA); format: cell-based, human; settings: for IC50: Homo sapiens, CD4+ T, n=4, ±sem, read-out: pIC50, T cell receptor-induced production of IL-2 in CD4+ T cells (converted)
Description: as §1
96-well flat-bottom plates were coated with 10 μg/mL anti-CD3+2 μg/mL anti-CD28 at 4° C. overnight. The following day, plates were washed with PBS. For cytokine production studies, cells were added to anti-CD3+anti-CD28 pre-coated 96-well plates at 0.4×10^6 cells/well in the presence of EZH1/EZH2 inhibitors or vehicle and incubated at 37° C./5% CO2. Supernatants were taken 18 h (IL-2) or 72 h (IL-10, IL-13, IL-17, IFN, TNF) for determination of cytokine production by multiplex ELISA from Mesoscale discovery according to the manufacturers protocols.
as §2
Data were analysed using Excel and are expressed as mean±standard error of the mean; n values are the numbers of human donors used. pIC50 values were generated using GraphPad Prism software and non-linear sigmoid dose curve-fit.

IC50 (CD4+ T cells [2]; 18 h post stimulation) | SMILES | IC50 (CD4+ T cells [1]) | effect on T cell receptor-induced proliferation of CD4+ T cells (CD4+ T cells [1]; n=4) | effect on T cell receptor-induced production of IL-2 in CD4+ T cells (CD4+ T cells [2]; 18 h post stimulation, n=4, a pIC50 could not be calculated) | effect on T cell receptor-induced production of IL-17 or IFN in CD4+ T cells (CD4+ T cells [2]; 72 h post stimulation, n=4) | effect on IL-10, IL-13 & TNF production (CD4+ T cells [2]; High concentrations (i.e. >15 μM), 72 h, n=4)
0.575 µM | CCCc1cc(C)[nH]c(=O)c1CNC(=O)c1cc(-c2ccc(N3CCN(C)CC3)nc2)cc2c1cnn2C(C)C [Compound A, 1-(1-methylethyl)-N-[(6-methyl-2-oxo-4-propyl-1,2-dihydro-3-pyridinyl)methyl]-6-[6-(4-methyl-1-piperazinyl)-3-pyridinyl]-1H-indazole-4-carboxamide] | 5.01 µM |  |  |  | 
1.74 µM | Cc1cc(C)c(CNC(=O)c2cc(-c3ccc(N4CCN(C)CC4)nc3)cc3c2c(C)cn3C(C)C)c(=O)[nH]1 [Compound B, N-[(4,6-dimethyl-2-oxo-1,2-dihydro-3-pyridinyl)methyl]-3-methyl-1-(1-methylethyl)-6-[6-(4-methyl-1-piperazinyl)-3-pyridinyl]-1H-indole-4-carboxamide] | 11.7 µM |  |  |  | 
 | Cc1ccc(CNC(=O)c2cc(C3CC3)nc3c2cnn3C(C)C)c(=O)[nH]1 [Compound C, 6-cyclopropyl-1-(1-methylethyl)-N-[(6-methyl-2-oxo-1,2-dihydro-3-pyridinyl)methyl]-1H-pyrazolo[3,4-b]pyridine-4-carboxamide] |  | had no effect | impaired | had no effect | reduced
